Among the data in ChEMBL document CHEMBL3507680, “University of Dundee, Gates Library screen for HepG2 cell viability” are cytotoxicity values, retold here.

Molecules are shown by their SMILES.

A short description of this series: Human HepG2 cell viability assay in 384 well format. The settings on record: HepG2 cells, read-out: Inhibition. On the set-up: dose 125 nL, time 70.5 hour; cytotoxicity at 70.5 h: concentration not given beside the values. It counts as toxicity, cell-based.
`COc1cc2cc(C(=O)O)n(C)c2c(OC)c1OC`: the cytotoxicity at 70.5 h was -10.1%.

As for `NC(=O)Cn1ccc(O)c(Cc2ccc(Cl)cc2Cl)c1=O`, the cytotoxicity at 70.5 h came out at 3.22%.

Take `O=c1[nH]cnc2[nH]c(N3CCCCC3)nc12`: the cytotoxicity at 70.5 h is -5.16%.

With `O=C(NCC(F)(F)C(F)F)c1ccncc1`, the cytotoxicity at 70.5 h was -8.69%.

Regarding `Cc1cc(C(=O)NCc2cccn2C)nn1C`, the cytotoxicity at 70.5 h was found to be 15.6%.

As for `COc1ccnc(NCc2ccccc2Cn2cccn2)n1`, the cytotoxicity at 70.5 h is -1.62%.

As to `COc1ccc(-c2cc(N)on2)cc1OC`, the cytotoxicity at 70.5 h is -2.02%.

As to `Cn1c(=O)c2cc(C(=O)NCCc3ccccc3)ccc2n(C)c1=O`, the cytotoxicity at 70.5 h is -1.15%.

Regarding `CC(C)CCC(=O)N1CCN(C(=O)c2ccc(-n3cccn3)cc2)CC1`, the cytotoxicity at 70.5 h is -3.97%.

On to `Cc1nc2c(Nc3cccc(C#N)c3)nc(N)nc2n1C`, for which the cytotoxicity at 70.5 h came out at 4%.

Take `O=C1CN(c2ccc(CNC(=O)Nc3nnc(C4CC4)s3)cc2)CCN1`: the cytotoxicity at 70.5 h is 21.5%.

Consider `CC(Cc1ccco1)NC(=O)Nc1ccc(S(C)(=O)=O)nc1` (stereo not drawn), for which the cytotoxicity at 70.5 h was -2.2%.

Regarding `Cn1c(=O)oc2cc(S(=O)(=O)N3CCC(c4ccccc4)C3)c(Cl)cc21` (stereo not drawn), the cytotoxicity at 70.5 h is 25%.

`Cc1cc(N2CCC(O)CC2)nc(C)n1`: the cytotoxicity at 70.5 h came out at 1.14%.

With `Cc1c(C(=O)O)sc2nc(C(F)(F)F)ccc12`, the cytotoxicity at 70.5 h was -18.5%.

Take `CCC(NC(=O)CN(C)Cc1ccc(C)o1)c1ccc(Br)cc1` (stereo not drawn): the cytotoxicity at 70.5 h was -1.78%.

On to `Cc1cc2cc(Nc3c(C#N)c(=O)n(C)c(=O)n3C)ccc2[nH]1`, for which the cytotoxicity at 70.5 h was -5.45%.

With `Cc1cc(S(=O)(=O)N(CC(N)=O)CC(C)C)ccc1Br`, the cytotoxicity at 70.5 h is 11.4%.

As to `Cc1ncc(CN(C)Cc2nc3cc(Cl)ccc3n2C)s1`, the cytotoxicity at 70.5 h is -18.2%.

Turning to `O=C(COCC(F)(F)F)Nc1nncs1`, the cytotoxicity at 70.5 h worked out at 10.8%.

In the case of `CN(Cc1ccccc1C(F)(F)F)C(C(N)=O)c1ccccc1` (stereo not drawn), the cytotoxicity at 70.5 h came out at 10.2%.

Regarding `CC(c1ccc(F)cc1)N1CCN(Cc2ccc(C#N)cc2)CC1` (stereo not drawn), the cytotoxicity at 70.5 h was -11.6%.

On to `COc1ccc(NC(=O)CSc2nc(C)cc(C)n2)cn1`, for which the cytotoxicity at 70.5 h is -8.52%.

`Cc1c(CNCc2nn(-c3ccccc3)c3c2CCC3)cc(C#N)n1C`: the cytotoxicity at 70.5 h came out at 4.96%.

For `OC(c1ccccc1)C1CCN(Cc2csc(-c3ncccn3)n2)CC1` (stereo not drawn), the cytotoxicity at 70.5 h is -7.96%.

`COCc1cccc(NC(=O)NCCCN(C)S(C)(=O)=O)c1`: the cytotoxicity at 70.5 h was -10.1%.

Regarding `COc1cc(OC)cc(C2NC(=O)CN2Cc2ccc(Br)cc2)c1` (stereo not drawn), the cytotoxicity at 70.5 h is -8.73%.

Regarding `CCOc1ccc(Oc2cc(CN)ccn2)cc1`, the cytotoxicity at 70.5 h was -27.6%.

As to `Cc1nn(C(C)C)c(C)c1NC(=O)Nc1cccnc1N1CCCC1`, the cytotoxicity at 70.5 h is -8.9%.

With `CN(C)C(=O)Cn1cc(C(=O)NCCc2ccc(C(F)(F)F)cc2)nn1`, the cytotoxicity at 70.5 h turned out to be 30.1%.

As to `CC(C)(C)C(CCO)NC(=O)Nc1ccncc1` (stereo not drawn), the cytotoxicity at 70.5 h amounted to 23.3%.

Turning to `CCCNC(=O)CNC(=O)CCc1ccccc1Br`, the cytotoxicity at 70.5 h is -7.6%.

Turning to `CC(C)COC(C)C(=O)NCCNS(C)(=O)=O` (stereo not drawn), the cytotoxicity at 70.5 h was -7.36%.

Regarding `Cn1ccnc1CCNS(=O)(=O)c1cccnc1`, the cytotoxicity at 70.5 h is -4.82%.

For the molecule `Cc1cccc(OC2CCN(C(=O)NCCn3ccnc3)CC2)c1C`, the cytotoxicity at 70.5 h was -3.44%.

Turning to `CN(C)c1cc(C(=O)NCC2(c3ccc(F)cc3)CC2)ccn1`, the cytotoxicity at 70.5 h is -1.65%.

`CNC(=O)CN1CCC(NC(=O)C(C)Oc2ccccc2C#N)CC1` (stereo not drawn): the cytotoxicity at 70.5 h is -3.18%.

On to `O=c1c2ccccc2nnn1CN(CC1CCOC1)C1CC1` (stereo not drawn), for which the cytotoxicity at 70.5 h was -2.98%.

`Cc1noc(C)c1CNCc1nn(-c2ccccc2)c2c1CCC2`: the cytotoxicity at 70.5 h is -3.23%.

Regarding `COCCOc1ccc(NC(=O)N(CCO)C2CC2)cn1`, the cytotoxicity at 70.5 h was -10.9%.

For `Cc1cn2nc(N3CCCC3C(=O)N3CCN(C)CC3)sc2n1` (stereo not drawn), the cytotoxicity at 70.5 h was 13.5%.

As to `CC(C)(C)OC(=O)NC(C)(C)c1noc(Cn2ccnc2)n1`, the cytotoxicity at 70.5 h is -4.72%.

Take `COc1ccc(CCC(=O)NCCC2CCCO2)cc1Br` (stereo not drawn): the cytotoxicity at 70.5 h was -7.13%.

Turning to `COCCOc1ccc(CNc2cnc3ccccc3n2)cn1`, the cytotoxicity at 70.5 h is -10.9%.

Regarding `Fc1ccc(C2CN(c3ncnc4nc[nH]c34)CCO2)cc1` (stereo not drawn), the cytotoxicity at 70.5 h was -11.9%.

In the case of `c1ccc2oc(C3CCN(Cc4ncon4)CC3)nc2c1`, the cytotoxicity at 70.5 h is -0.981%.

For `COC(=O)c1ccc(NC(=O)CCNCc2ccco2)cc1`, the cytotoxicity at 70.5 h is -7.22%.

With `Cc1c(C(=O)O)sc2nc(Cc3ccccc3)nc(N)c12`, the cytotoxicity at 70.5 h was -3.73%.

On to `Cc1ccc(CNC(=O)C2CCN(C(=O)c3ccco3)CC2)n1C`, for which the cytotoxicity at 70.5 h turned out to be 20.7%.

As for `O=C(CSc1nncs1)N1CCN(Cc2ccc(Cl)s2)CC1`, the cytotoxicity at 70.5 h is -9.92%.

In the case of `CN(C)c1nc(N)nc(CN2CCC(c3nc4ccccc4o3)CC2)n1`, the cytotoxicity at 70.5 h was -7.79%.

`O=C1NCCCCC1Sc1nnc(C2CC2)n1C1CC1` (stereo not drawn): the cytotoxicity at 70.5 h was -5.95%.

With `CCN(C1CCS(=O)(=O)C1)S(=O)(=O)c1cccc2cc(C)cnc12` (stereo not drawn), the cytotoxicity at 70.5 h is 2.06%.

Regarding `Cc1c(C(=O)O)oc2ccc(I)cc12`, the cytotoxicity at 70.5 h is -5.09%.

Consider `CC(=O)N1CCCC(C(=O)Nc2ccccc2Cc2ccccc2)C1` (stereo not drawn), for which the cytotoxicity at 70.5 h amounted to 3.24%.

As to `Cc1ccccc1C(=O)NC(C)CN1CCOC1=O` (stereo not drawn), the cytotoxicity at 70.5 h was -3.59%.

Regarding `CC(C)c1nc(CSc2nnc(C3CC3)n2CC(N)=O)no1`, the cytotoxicity at 70.5 h was -7.31%.

For the molecule `Cc1nccc(-c2cccc(NCc3nc(C(C)C)no3)c2)n1`, the cytotoxicity at 70.5 h is -10.6%.

For the molecule `c1ccc2c(c1)COC1(CCCC1)N2`, the cytotoxicity at 70.5 h turned out to be 22.7%.

For the molecule `OCc1ccc(OCC(F)(F)F)cc1`, the cytotoxicity at 70.5 h was -8.76%.

Regarding `Cc1nc(Nc2ccccn2)cc(N2CCN(S(C)(=O)=O)CC2)n1`, the cytotoxicity at 70.5 h turned out to be 11.2%.

As for `CCOC(=O)CCC(=O)N1CCC(CSCc2ccco2)CC1`, the cytotoxicity at 70.5 h was -12%.

As to `CCc1nnc(CN(C)c2nc(C(C)C)nc3c2cnn3C)o1`, the cytotoxicity at 70.5 h was -5.57%.

For the molecule `O=C(NCc1cc(O)ncn1)C1CCOc2ccccc2C1` (stereo not drawn), the cytotoxicity at 70.5 h was -7.76%.

As for `Cn1c(Cn2ccnc2)nnc1C1CCCN(C2CCCCC2)C1` (stereo not drawn), the cytotoxicity at 70.5 h is -9.84%.

Take `CCn1c(N)nc2cc(C(=O)NCCc3sccc3C)cnc21`: the cytotoxicity at 70.5 h is -4.44%.

Turning to `COCc1cc(NCCc2ccc(F)cc2)n2nccc2n1`, the cytotoxicity at 70.5 h was -0.706%.

Turning to `CCC1c2cccn2CCN1C(=O)c1ccc2nonc2c1` (stereo not drawn), the cytotoxicity at 70.5 h is -2.25%.

As for `COC[C@@]12CC[C@@H](N3CCOCC3)C[C@H]1CCN(c1ncccn1)C2`, the cytotoxicity at 70.5 h is -10.2%.

For the molecule `CC(=O)NCC1CCN(CC2CCOc3ccccc3C2)CC1` (stereo not drawn), the cytotoxicity at 70.5 h is -4.25%.

For the molecule `Cc1nc(CN2CCCC(CCNS(C)(=O)=O)C2)c[nH]1` (stereo not drawn), the cytotoxicity at 70.5 h was -11.3%.

On to `CC(=O)c1cc(CC(=O)NCc2c(F)cccc2F)cs1`, for which the cytotoxicity at 70.5 h was -7.61%.

In the case of `CCc1cc(N2CCCNCC2)n2nc(C)c(C)c2n1`, the cytotoxicity at 70.5 h is -5.51%.

For `Cc1ncccc1OC1(C(=O)NCCNc2ccccc2)CCNCC1`, the cytotoxicity at 70.5 h is -5.68%.

Consider `CC(C)n1ccnc1C1CCN(C(=O)c2cc[nH]n2)CC1`, for which the cytotoxicity at 70.5 h is -10.9%.

For the molecule `Cc1cc(CN2CCOCS2(=O)=O)ccc1F`, the cytotoxicity at 70.5 h was -7.79%.

In the case of `CCOc1ccc2[nH]c(=O)c(CN3CCC(O)CC3)cc2c1`, the cytotoxicity at 70.5 h was -7.88%.

`CC(C)(C)N1CC(C(=O)N2CCN(CCc3ccccc3)CC2)CC1=O` (stereo not drawn): the cytotoxicity at 70.5 h was -12.8%.

As to `CC(C)=CCN1CCC(c2nccn2Cc2cscn2)CC1`, the cytotoxicity at 70.5 h was -2.36%.

For the molecule `CNC(=O)CC1CCN(Cc2nc(-c3cccc(Cl)c3)oc2C)CC1`, the cytotoxicity at 70.5 h is -7.93%.

Consider `CSCCC1c2nc[nH]c2CCN1Cc1ccnc2ccccc12` (stereo not drawn), for which the cytotoxicity at 70.5 h is -12.3%.

For `CCc1nc(N)sc1C(=O)N1CCCC(CCc2ccccc2C)C1` (stereo not drawn), the cytotoxicity at 70.5 h is -6.29%.

In the case of `CC(C)C1CN(c2ncc(F)cn2)CCC(=O)N1Cc1ccc(F)cc1` (stereo not drawn), the cytotoxicity at 70.5 h was -6.84%.

Consider `CCn1nc(C(C)C)cc1C(=O)NCCCOC`, for which the cytotoxicity at 70.5 h was -4.05%.

For the molecule `CN(C)S(=O)(=O)N1C[C@@H]2CC[C@H](C1)N(Cc1ccc3nsnc3c1)C2`, the cytotoxicity at 70.5 h is 5.66%.

As to `O=C(CCc1c[nH]cn1)N1CC[C@@H](c2ccc3ccccc3c2)[C@H](O)C1`, the cytotoxicity at 70.5 h was -8.55%.

For `Cc1cc(C(=O)N2C[C@@H](C(=O)O)[C@H](c3ccccc3C)C2)c(C)o1`, the cytotoxicity at 70.5 h was determined as 13.2%.

Turning to `CS(=O)(=O)NCc1cc2n(n1)CCCN(Cc1nc3ccccc3[nH]1)C2`, the cytotoxicity at 70.5 h is -8.44%.

`COc1ccccc1OC1(C(=O)O)CCN(c2nccnc2C)CC1`: the cytotoxicity at 70.5 h is -5.26%.

On to `Cc1cc(CN2CCC(CNC(=O)c3nccc4ccccc34)C2)[nH]n1` (stereo not drawn), for which the cytotoxicity at 70.5 h amounted to 9.66%.

Regarding `CCCC1(CO)CCCN(c2ncccc2F)C1` (stereo not drawn), the cytotoxicity at 70.5 h was -7.06%.

Turning to `Cn1ncc2c(NCCOc3ccc(F)cc3)nc(C3CCCC3)nc21`, the cytotoxicity at 70.5 h was 0.952%.

Consider `CCCN1CCCn2nc(CNS(=O)(=O)c3cccc(C#N)c3)cc2C1`, for which the cytotoxicity at 70.5 h was -12.6%.

For `O=C1N(Cc2ccccc2F)CCCC12CCN(C1CCSCC1)C2` (stereo not drawn), the cytotoxicity at 70.5 h is -4.98%.

On to `Cc1nsc(NC(=O)N2CCC(C(C)(C)O)CC2)n1`, for which the cytotoxicity at 70.5 h was -5.05%.

Regarding `COc1ncc(-c2nccn2CCN(C)C)cn1`, the cytotoxicity at 70.5 h was determined as 9.94%.

As to `N#Cc1ccc(C(=O)N2CCC3(CC2)C(=O)Nc2ccccc23)cn1`, the cytotoxicity at 70.5 h was -11.7%.

With `CC(=O)NC(C)CC(=O)NCc1cccnc1Oc1ccccc1C` (stereo not drawn), the cytotoxicity at 70.5 h is -6.45%.

For `CCc1cc2cc(OC)c(OC)cc2nc1SCCN1CCCCC1`, the cytotoxicity at 70.5 h is 1.15%.

`COc1ccc(CC(=O)N2CCC[C@@H](N)[C@@H]2c2ccccc2F)cc1`: the cytotoxicity at 70.5 h was -0.222%.

In the case of `CN1CCN(C2CCN(C(=O)CCC3CCCC3)CC2)CC1`, the cytotoxicity at 70.5 h is -6.88%.

On to `CC(CCc1ccccc1)NC(=O)CNCCCN1CCOCC1` (stereo not drawn), for which the cytotoxicity at 70.5 h came to 10.1%.

With `Nc1ncnc2[nH]c(N3CCCCC3)nc12`, the cytotoxicity at 70.5 h was -6.41%.
